Laboratory results published in paper PMC10510387, “Targeting Cytotoxic Agents through EGFR-Mediated Covalent Binding and Release” (Journal of Medicinal Chemistry, 2023).
Entries after “also recorded” stand apart in the source; their conditions may differ. Where two headings read alike, the source gives them in different places. Blank lines part the entries; values can stand above or below the compound they belong to.

Columns and labels:
WT EGFR [1] = target: T1, WT EGFR (Homo sapiens, UniProt P00533); assay: Protein mass spectrometry after incubation of compound with EGFR; format: binding; settings: for adduct formation with EGFR / release of 5FU from EGFR adduct: 15 μM compound, 4 μM EGFR, 4 hr; for adduct formation with EGFR: ambient temperature; for release of 5FU from EGFR adduct: protein mass spectrometry; for mass increase of adduct after loss of 5FU / mass increase of initial (intact) adduct: relative to apo protein
Description: Compounds were suspended in 10 mM in 100% DMSO and were added to 4 μM of EGFR to achieve the final compound concentration of 15 μM in 1% DMSO, in 25 mM Tris pH 8, 150 mM NaCl, 5% Glycerol before incubating at an ambient temperature for 4 hr time prior to analysis.
Following incubation, intact protein masses were determined using an Agilent 6530 Accurate Mass dual AJS/ESI Q-TOF instrument coupled to an Agilent 1260 Infinity II LC system. 1 μL of purified protein (∼1 mg/mL) was injected onto an MS Pac DS-10 Desalter cartridge ((Thermo Fisher Scientific), PN: 089170, 2.1 × 10 mm) for desalting and reversed phase separation at 70 °C. The mobile phase was 0.1% (v/v) formic acid in LC-MS grade water (A) and LC-MS grade acetonitrile (B) with separation performed over 7.5 min. […] Proteins were detected in positive ion mode using electrospray ionization with a nebulizer pressure of 45 psig, a drying gas flow of 5 L/min, and a source gas temperature of 325 °C. A sheath gas temperature of 400 °C, a gas flow of 11 L/min, a capillary voltage of 3500 V, and a nozzle voltage of 2000 V were also used. Mass spectra were acquired using MassHunter Acquisition software (version B.08.00) over a mass range of 100–3000 m/z at a rate of 1 spectra/s and 1000 ms/spectrum in the standard mass range (3200 m/z) at 2 GHz. The instrument had been calibrated over the selected mass range prior to analysis.

WT EGFR [2] = target: T1, WT EGFR; assay: In vitro TR-FRET assay, WT EGFR; format: binding; settings: for WT EGFR pIC50: Table S1, TR FRET, n=1, 2 technical replicates
DM EGFR = assay: In vitro TR-FRET assay, DM EGFR; format: binding
[3] = 19F NMR 5FU release study with N-acetyl-L-cysteine methyl ester; format: physicochemical; settings: reaction with N-acetyl cysteine
Description: Reaction of the model systems with N-acetyl-L-cysteine methyl ester was assessed by ^19F NMR.
Acrylate-5FU conjugate (0.125 M) in d^6-DMSO (0.25 mL) was prepared in an NMR tube. N-Acetyl cysteine methyl ester (1.9 mg, 0.011 mmol) or glutathione (3.4 mg, 0.011 mmol) in d^6-DMSO was prepared. The cysteine/glutathione solution was added to the NMR tube, and the tube was inverted several times. The ^19F NMR was taken immediately for t = 0 measurement. Further measurements were taken at t = 30 min and t = 60 min.

[4] = test system: pEGFR (Tyr1068) in A431 cells; assay: Cellular pEGFR inhibition by HTRF (A431); format: cell-based; settings: for pEGFR pIC50: Figure 5a; for IC50: Homo sapiens, A-431, Figure 5a, read-out: pEGFR pIC50 (converted)
Description: Cells were plated at 20 000 cells per well in 96-well plates and placed at 37 °C with 5% CO2. […] Compound and media were removed from the cells, and then 50 μL of HTRF lysis buffer was added (lysis buffer was diluted from 4× stock to 1× in deionized (DI) water, with 1% blocking agent also added). Cells were lysed on a plate shaker (2000 rpm) for 30 min at room temperature. pEGFR expression was monitored using the Cisbio Phospho-EGFR (Tyr1068) cellular kit (64EG1PEH). Total EGFR expression was monitored using the Cisbio Total EGFR cellular kit (64NG1PEH) as per the manufacturer’s instructions. […] Results were calculated as the ratio of pEGFR/total EGFR and then the percentage of 0 μM control.

[5] = test system: EGFR phosphorylation in A431 cells; assay: pEGFR inhibition by Western blot in A431; format: cell-based; settings: 4 h
Description: Appropriately treated cells were lysed in Phosphosafe extraction buffer combined with cOmplete Protease Inhibitor Cocktail (Merck) prepared as per the manufacturer’s instructions.
Samples were prepared in Eppendorf vials by diluting them to the required concentrations with phosphate-buffered saline (PBS), and the appropriate amount of 4X XT sample buffer was added. This solution was vortexed, centrifuged, then placed at 98 °C for 5 min, and then centrifuged to remove the residue. Migration was performed using a 4–20% Criterion TGX Precast Midi Protein Gel, 18 well, 30 μL (Cat. No. 5671094) placed in a Criterion running tank (Cat. No. 1656001) and also using PowerPac HC high-current power supply (Bio-Rad) electrodes. Nitrocellulose membrane used was an Amersham Protran Premium 0.45 Nitrocellulose membrane (Cat. No. 15269794) and Ponceau S Stain (Sigma-Aldrich Cat. No. p7170).
Primary antibodies raised to EGFR (CST 4267) or pEGFR (CST 3777) were diluted (1:1000) in 5% BSA w/v. Loading control antibodies were prepared in 5% milk w/v with 1 × TBS/T (0.1 v/v) solution at a determined optimum concentration.
Secondary HRP-conjugated antibodies were diluted in 5% milk with w/v in 1 × TBS/T (0.1 v/v) solution at a determined optimum concentration.
Proteins were detected using the Clarity ECL Western blotting substrate (Bio-Rad).

A431 cells = assay: Growth inhibition in adherent cell lines (SRB, 72 h); format: cell-based; settings: for GI50: Homo sapiens, A-431, 72 h
Description: On day 1, the compounds were diluted to the required concentration in DMEM +10% FBS media, ensuring that the final DMSO concentration was 0.1% once added to cells. […] Cells were then fixed by adding 50% (wt/vol) TCA to each well of the plate and left at 4 °C for 1 h. The plates were then washed thoroughly with water, 100 μL of 0.4% SRB solution was added to the wells, and left at room temperature for 30 min. The plates were rinsed with 1% AcOH and then left to air-dry in a drying cabinet for 1 h. […] The absorbance was read at 570 nm using a FluoStar Omega plate reader.

[6] = Compound media stability (LC-MS); format: physicochemical; settings: DMEM + 10% FCS, 1.0 μM, 25 h
Description: Compound 53 (0.760 mg, 1.51 μmol) was dissolved in DMSO […] and then added to DMEM (Sigma-Aldrich 5796) + 10% FCS media (1.50 mL) such that the final concentration was 1.0 μM. Liquid chromatography-mass spectrometry (LC-MS) analysis was carried out at t = 0, 1, 3, and 25 h.

[7] = Table S1, TR FRET, n=1, 2 technical replicates
[8] = WT EGFR, TR-FRET, n > 2, Figure 5a and text
[9] = A431 cell viability, 72 h, Figure 5c
[10] = A431 cell viability, 72 h, Figure 6b, single agents and equimolar combination

Compound: 2-Fluoro-4-methoxy-5-((4-(1-methyl-1H-indol-3-yl)pyrimidin-2-yl)amino)phenyl (E)-3-(5-fluoro-2,4-dioxo-3,4-dihydropyrimidin-1(2H)-yl)acrylate [compound 35]
adduct formation with EGFR (WT EGFR [1]): evidence of adduct formation
release of 5FU from EGFR adduct (WT EGFR [1]): without evidence of the release of 5FU
WT EGFR pIC50 (WT EGFR [2]): < 4.0
DM EGFR pIC50 (DM EGFR; [7]): 5.5

Compound: 3-((4-(1-Methyl-1H-indol-3-yl)pyrimidin-2-yl)amino)-4-nitrophenyl (E)-3-(5-Fluoro-2,4-dioxo-3,4-dihydropyrimidin-1(2H)-yl)acrylate [compound 39]
adduct formation with EGFR (WT EGFR [1]): evidence of adduct formation
release of 5FU from EGFR adduct (WT EGFR [1]): without evidence of the release of 5FU
WT EGFR pIC50 (WT EGFR [2]): < 4.0
DM EGFR pIC50 (DM EGFR; [7]): 3.7

Compound: 4-((3-Chloro-4-fluorophenyl)amino)-7-methoxyquinazolin-6-yl (E)-3-(5-fluoro-2,4-dioxo-3,4-dihydropyrimidin-1(2H)-yl)acrylate [compound 53]
time to complete release of 5FU [3]: 1 h
adduct formation with EGFR (WT EGFR [1]): two new major adducts
release of 5FU from EGFR adduct (WT EGFR [1]): loss of 5FU from the complex
mass increase of adduct after loss of 5FU (WT EGFR [1]): 372 Da
mass increase of initial (intact) adduct (WT EGFR [1]): 502 Da
EGFR pIC50 (WT EGFR [2]; [8]): 6.8
pEGFR pIC50 [4]: 7.8
inhibition of EGFR phosphorylation at 1 μM [5]: not at 1 μM
inhibition of EGFR phosphorylation at 10 μM [5]: marked inhibition
pGI50 (A431 cells; [9]): 5.3
hydrolysis in cell media [6]: some hydrolysis did occur
release of 5FU in cell media [6]: no observation of the release of 5FU

GI50 (A431 cells; A431 cell viability, 72 h, Figure 6a, single agents and equimolar combination): 631 nM
GI50 (A431 cells; [10]): 631 nM
Compound: O=c1[nH]cc(F)c(=O)[nH]1 [5-FU, 5-fluorouracil, reference compound]

IC50 [4]: 10 nM
GI50 (A431 cells; [9]): 79.4 nM
Compound: COc1cc2ncnc(Nc3ccc(F)c(Cl)c3)c2cc1NC(=O)/C=C/CN1CCCCC1 [compound 2, dacomitinib, reference compound]

EGFR pIC50 (WT EGFR [2]; supplementary CSV column): 8.1 +/- 0.82
IC50 [4]: 5010 nM
GI50 (A431 cells; [9]): > 10000 nM
GI50 (A431 cells; [10]): 10000 nM
Compound: COc1cc2ncnc(Nc3ccc(F)c(Cl)c3)c2cc1OC(=O)/C=C/CN1CCCCC1 [compound 56, 4-((3-Chloro-4-fluorophenyl)amino)-7-methoxyquinazolin-6-yl (E)-4-(piperidin-1-yl)but-2-enoate]
inhibition of EGFR phosphorylation at 1 μM [5]: some inhibition

Compound: (E)-1-(3-(3-((4-((3-Chloro-4-fluorophenyl)amino)-7-methoxyquinazolin-6-yl)oxy)azetidin-1-yl)-3-oxoprop-1-en-1-yl)-5-fluoropyrimidine-2,4(1H,3H)-dione [compound 48]
adduct formation with EGFR (WT EGFR [1]): covalent adduct formation
release of 5FU from EGFR adduct (WT EGFR [1]): without evidence of the release of 5FU
WT EGFR pIC50 (WT EGFR [2]): 6.6
DM EGFR pIC50 (DM EGFR; [7]): 6.7

Compound: (E)-1-(3-(4-((4-((3-Chloro-4-fluorophenyl)amino)-7-methoxyquinazolin-6-yl)oxy)piperidin-1-yl)-3-oxoprop-1-en-1-yl)-5-fluoropyrimidine-2,4(1H,3H)-dione [compound 51]
WT EGFR pIC50 (WT EGFR [2]): 6.6

Compound: (E)-N-(3-((5-Chloro-4-(pyrazolo[1,5-a]pyridin-3-yl)pyrimidin-2-yl)amino)-4-methoxyphenyl)-3-(5-fluoro-2,4-dioxo-3,4-dihydropyrimidin-1(2H)-yl)acrylamide [compound 30]
adduct formation with EGFR (WT EGFR [1]): an adduct formed
release of 5FU from EGFR adduct (WT EGFR [1]): without 5FU release; also recorded: no evidence of the release of 5FU
mass increase of initial (intact) adduct (WT EGFR [1]): 548 Da
WT EGFR pIC50 (WT EGFR [2]): 5.7
DM EGFR pIC50 (DM EGFR): 6.8

Compound: (E)-N-(4-((3-Chloro-4-fluorophenyl)amino)-7-methoxyquinazolin-6-yl)-3-(5-fluoro-2,4-dioxo-3,4-dihydropyrimidin-1(2H)-yl)acrylamide [compound 57]
adduct formation with EGFR (WT EGFR [1]): clear adduct
release of 5FU from EGFR adduct (WT EGFR [1]): negligible release of 5FU
mass increase of adduct after loss of 5FU (WT EGFR [1]): 371 Da
mass increase of initial (intact) adduct (WT EGFR [1]): 501 Da
EGFR pIC50 (WT EGFR [2]; [8]): 7.3
pEGFR pIC50 [4]: 5.6
inhibition of EGFR phosphorylation at 10 μM [5]: little inhibition
antiproliferative effect (A431 cells; A431, 72 h growth inhibition): no antiproliferative effects
pGI50 (A431 cells; supplementary CSV column): <5.0

Compound: (R, E)-1-(3-(3-((4-((3-Chloro-4-fluorophenyl)amino)-7-methoxyquinazolin-6-yl)oxy)pyrrolidin-1-yl)-3-oxoprop-1-en-1-yl)-5-fluoropyrimidine-2,4(1H,3H)-dione [compound 49]
WT EGFR pIC50 (WT EGFR [2]): 5.6
DM EGFR pIC50 (DM EGFR; [7]): 6.4

Compound: (S, E)-1-(3-(3-((4-((3-Chloro-4-fluorophenyl)amino)-7-methoxyquinazolin-6-yl)oxy)pyrrolidin-1-yl)-3-oxoprop-1-en-1-yl)-5-fluoropyrimidine-2,4(1H,3H)-dione [compound 50]
WT EGFR pIC50 (WT EGFR [2]): 5.9
DM EGFR pIC50 (DM EGFR; [7]): 6.6
